The numbers were not newly measured in patent publication US20230312524A1, “ALPHA1A-ADRENERGIC RECEPTOR AGONISTS AND METHODS OF USE” (CuraSen Therapeutics, Inc., priority 2020, published 2023), which cites them from elsewhere.

Where a name gives a salt, the structure may show the parent alone. Read-outs that look alike come from different tables or passages of the source.

In series [1] the target is T1, α1A-adrenergic receptor (Homo sapiens, UniProt P35348).
T1 sequence (P35348 1-466): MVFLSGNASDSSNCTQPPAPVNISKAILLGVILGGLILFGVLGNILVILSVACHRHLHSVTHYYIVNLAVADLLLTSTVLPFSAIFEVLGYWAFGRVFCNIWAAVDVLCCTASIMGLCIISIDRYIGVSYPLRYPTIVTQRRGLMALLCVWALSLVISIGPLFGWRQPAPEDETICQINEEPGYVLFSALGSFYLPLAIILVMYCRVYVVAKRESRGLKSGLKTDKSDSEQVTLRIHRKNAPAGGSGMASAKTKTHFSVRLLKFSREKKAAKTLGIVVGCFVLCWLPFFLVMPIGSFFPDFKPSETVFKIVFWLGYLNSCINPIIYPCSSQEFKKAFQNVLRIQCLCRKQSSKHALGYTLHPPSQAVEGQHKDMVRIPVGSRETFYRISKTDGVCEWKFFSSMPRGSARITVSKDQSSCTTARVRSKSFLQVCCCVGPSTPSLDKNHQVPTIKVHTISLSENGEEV
To be noted: as compared to noradrenaline; InsPs accumulation assay; Blue et al., Table 1; cited from earlier work.

Series [2] has as its target T1, α1A-adrenergic receptor. To be noted: as compared to noradrenaline; FLIPR assay; Blue et al., Table 1; cited from earlier work.

In the case of `Cc1c(OCC2=NCCN2)ccc(Cl)c1NS(C)(=O)=O` [RO 115-1240 (dabuzalgron) HCl salt, dabuzalgron], the intrinsic activity in series [1] is 0.27; in series [2], 0.51.
